1 molecule from patent US20110081429A1, “COMPOSITION FOR EXTERNAL USE” (priority 2008, published 2011) can be followed below.

“Also recorded” adds a separate entry of the source.

The experiment concerns IGF-1 secretion in the skin. Briefly: IGF-1 concentration in the skin after application of essential oil and/or AMP (Experimental Example 1). Format: in vivo, hairless mice (Hos: HR-1). As to conditions: hairless mice, 400 μl on back skin (3 cm×5 cm), 30 minutes after the application; FIG. 1a-1c. The protocol: In order to examine how the effect of essential oils on the amount of IGF-1 secretion in the skin is affected by AMP, the following compositions containing an essential oil and AMP (Examples 1 to 3 and Comparative Examples 1 to 5) were prepared by a standard method. The pH of each composition was adjusted with NaOH such that the pH ranged from 6.5 to 7.0.
400 μl of a test solution was applied to the skin on the back (3 cm×5 cm) of hairless mice (Hos: HR-1, Japan SLC, Inc., female, 6 to 8 weeks age). 30 minutes after the application, the skin was extracted and frozen-crushed. Then, the IGF-1 concentration in the skin was measured using Quantikine (registered trademark) Mouse IGF-1 Immunoassay (R&D Systems, Inc.).
The composition shown in Table 1 was used as a test solution.
The secreted IGF-1 concentration was measured according to the method described in Experiment 1-1. The composition shown in Table 1 above was used as a test solution.

Turning to `Nc1ncnc2c1ncn2[C@@H]1O[C@H](COP(=O)(O)O)[C@@H](O)[C@H]1O` [AMP, adenosine-5′-monophosphate], the “stimulatory effect on IGF-1 secretion (IGF-1 concentration in the skin)” value is recorded as “did not produce a stimulatory effect on IGF-1 secretion when used alone; also recorded: neither AMP or Scotch pine needle oil stimulated IGF-1 secretion when used alone; also recorded: did not produce a sufficient stimulatory effect on IGF-1 secretion”.
